Patent publication US7625841B2, “Substituted thiene-3-ylsulphonylamino(thio)carbonyltriazolin(ethi)ones” (Bayer CropScience AG, priority 2001, dated 2009)
Counter-ions that a name gives are not always drawn.

What was measured:
weeds [1] = experiment: Pre-emergence test, summary for weeds; format: in vivo
How it was run: (§1)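 Active compound mixed with acetone, emulsifier added, concentrate diluted with water to the required rate. Seeds sown in normal soil, soil sprayed after 24 hours at a water volume of 1000 l/ha. Plants assessed three weeks later for % damage against untreated plants.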

Setaria [2] = experiment: Pre-emergence test/greenhouse; format: in vivo; conditions: greenhouse, application rate 15 gai/ha, rated after three weeks, 0%=no effect, 100%=total destruction
How it was run: as §1

Galium = experiment: Pre-emergence test/greenhouse; format: in vivo; conditions: greenhouse, application rate 15 gai/ha, rated after three weeks, 0%=no effect, 100%=total destruction
How it was run: as §1

Avena fatua [3] = experiment: Pre-emergence test/greenhouse; format: in vivo; conditions: greenhouse, application rate 15 gai/ha, rated after three weeks, 0%=no effect, 100%=total destruction
How it was run: as §1

Lolium [4] = experiment: Pre-emergence test/greenhouse; format: in vivo; conditions: greenhouse, application rate 15 gai/ha, rated after three weeks, 0%=no effect, 100%=total destruction; for pest or weed control at 15 g/ha: Lolium, 504 h, read-out: degree of damage to the plants, Lolium
How it was run: as §1

Bromus [5] = experiment: Pre-emergence test/greenhouse; format: in vivo; conditions: greenhouse, application rate 15 gai/ha, rated after three weeks, 0%=no effect, 100%=total destruction
How it was run: as §1

Amaranthus = experiment: Pre-emergence test/greenhouse; format: in vivo; conditions: greenhouse, application rate 15 gai/ha, rated after three weeks, 0%=no effect, 100%=total destruction
How it was run: as §1

Stellaria = experiment: Pre-emergence test/greenhouse; format: in vivo; conditions: greenhouse, application rate 15 gai/ha, rated after three weeks, 0%=no effect, 100%=total destruction; for pest or weed control at 15 g/ha: Stellaria, 504 h, read-out: degree of damage to the plants, Stellaria
How it was run: as §1

[6] = system: crop plants such as, for example, maize, oilseed rape and wheat; experiment: Post-emergence test, summary for crop plants; format: in vivo
How it was run: (§2)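 First, active compound was mixed with acetone and emulsifier and diluted with water. Next, test plants 5-15 cm high were sprayed so the desired amount per area was delivered in 1000 l water/ha. Finally, after three weeks, damage was scored in % against untreated plants.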

[7] = system: crop plants, such as, for example, maize, soyabean and wheat; experiment: Pre-emergence test, summary for crop plants; format: in vivo
How it was run: as §1

Alopecurus [8] = experiment: Post-emergence test/greenhouse; format: in vivo; conditions: greenhouse, application rate 15 gai/ha, rated after three weeks, 0%=no effect, 100%=total destruction
How it was run: as §2

Echinochloa = experiment: Post-emergence test/greenhouse; format: in vivo; conditions: greenhouse, application rate 15 gai/ha, rated after three weeks, 0%=no effect, 100%=total destruction
How it was run: as §2

Chenopodium [9] = experiment: Post-emergence test/greenhouse; format: in vivo; conditions: greenhouse, application rate 15 gai/ha, rated after three weeks, 0%=no effect, 100%=total destruction
How it was run: as §2

rape = experiment: Post-emergence test/greenhouse; format: in vivo; conditions: greenhouse, application rate 15 gai/ha, rated after three weeks, 0%=no effect, 100%=total destruction
How it was run: as §2

Lolium [10] = experiment: Post-emergence test/greenhouse; format: in vivo; conditions: greenhouse, application rate 15 gai/ha, rated after three weeks, 0%=no effect, 100%=total destruction
How it was run: as §2

weeds [11] = experiment: Post-emergence test, summary for weeds; format: in vivo
How it was run: as §2

Xanthium [12] = experiment: Pre-emergence test/greenhouse; format: in vivo; conditions: Xanthium, 504 h, greenhouse, application rate 15 gai/ha, rated after three weeks, 0%=no effect, 100%=total destruction, read-out: degree of damage to the plants, Xanthium
How it was run: as §1

Solanum = experiment: Pre-emergence test/greenhouse; format: in vivo; conditions: greenhouse, application rate 15 gai/ha, rated after three weeks, 0%=no effect, 100%=total destruction
How it was run: as §1

maize [13] = experiment: Pre-emergence test/greenhouse; format: in vivo; conditions: Zea mays, 504 h, greenhouse, application rate 15 gai/ha, rated after three weeks, 0%=no effect, 100%=total destruction, read-out: degree of damage to the plants, maize
How it was run: as §1

wheat [14] = experiment: Pre-emergence test/greenhouse; format: in vivo; conditions: Triticum aestivum, 504 h, greenhouse, application rate 15 gai/ha, rated after three weeks, 0%=no effect, 100%=total destruction, read-out: degree of damage to the plants, wheat
How it was run: as §1

Matricaria = experiment: Pre-emergence test/greenhouse; format: in vivo; conditions: Matricaria, 504 h, greenhouse, application rate 15 gai/ha, rated after three weeks, 0%=no effect, 100%=total destruction, read-out: degree of damage to the plants, Matricaria
How it was run: as §1

Datura = experiment: Post-emergence test/greenhouse; format: in vivo; conditions: greenhouse, application rate 15 gai/ha, rated after three weeks, 0%=no effect, 100%=total destruction
How it was run: as §2

Viola = experiment: Post-emergence test/greenhouse; format: in vivo; conditions: greenhouse, application rate 15 gai/ha, rated after three weeks, 0%=no effect, 100%=total destruction
How it was run: as §2

Xanthium [15] = experiment: Post-emergence test/greenhouse; format: in vivo; conditions: greenhouse, application rate 15 gai/ha, rated after three weeks, 0%=no effect, 100%=total destruction
How it was run: as §2

maize [16] = experiment: Post-emergence test/greenhouse; format: in vivo; conditions: greenhouse, application rate 15 gai/ha, rated after three weeks, 0%=no effect, 100%=total destruction
How it was run: as §2

Polygonum [17] = experiment: Post-emergence test/greenhouse; format: in vivo; conditions: greenhouse, application rate 15 gai/ha, rated after three weeks, 0%=no effect, 100%=total destruction
How it was run: as §2

wheat [18] = experiment: Post-emergence test/greenhouse; format: in vivo; conditions: greenhouse, application rate 15 gai/ha, rated after three weeks, 0%=no effect, 100%=total destruction
How it was run: as §2

Alopecurus [19] = experiment: Pre-emergence test/greenhouse; format: in vivo; conditions: greenhouse, application rate 15 gai/ha, rated after three weeks, 0%=no effect, 100%=total destruction
How it was run: as §1

Digitaria [20] = experiment: Pre-emergence test/greenhouse; format: in vivo; conditions: greenhouse, application rate 15 gai/ha, rated after three weeks, 0%=no effect, 100%=total destruction
How it was run: as §1

Chenopodium [21] = experiment: Pre-emergence test/greenhouse; format: in vivo; conditions: greenhouse, application rate 15 gai/ha, rated after three weeks, 0%=no effect, 100%=total destruction
How it was run: as §1

Polygonum [22] = experiment: Pre-emergence test/greenhouse; format: in vivo; conditions: greenhouse, application rate 15 gai/ha, rated after three weeks, 0%=no effect, 100%=total destruction
How it was run: as §1

soybeans = experiment: Pre-emergence test/greenhouse; format: in vivo; conditions: greenhouse, application rate 15 gai/ha, rated after three weeks, 0%=no effect, 100%=total destruction
How it was run: as §1

Setaria [23] = experiment: Post-emergence test/greenhouse; format: in vivo; conditions: greenhouse, application rate 15 gai/ha, rated after three weeks, 0%=no effect, 100%=total destruction
How it was run: as §2

Avena fatua [24] = experiment: Post-emergence test/greenhouse; format: in vivo; conditions: greenhouse, application rate 15 gai/ha, rated after three weeks, 0%=no effect, 100%=total destruction
How it was run: as §2

Digitaria [25] = experiment: Post-emergence test/greenhouse; format: in vivo; conditions: greenhouse, application rate 15 gai/ha, rated after three weeks, 0%=no effect, 100%=total destruction
How it was run: as §2

Bromus [26] = experiment: Post-emergence test/greenhouse; format: in vivo; conditions: greenhouse, application rate 15 gai/ha, rated after three weeks, 0%=no effect, 100%=total destruction
How it was run: as §2

CCCc1nn(C(=O)NS(=O)(=O)c2c(C(=O)OC)csc2C)c(=O)n1OC [Example 42]
activity against weeds compared with the known compounds (A) to (G) (weeds [1]): considerably stronger activity against weeds
degree of damage to the plants, Setaria (Setaria [2]): 95%
degree of damage to the plants, Galium (Galium): 100%
degree of damage to the plants, Avena fatua (Avena fatua [3]): 90%
degree of damage to the plants, Lolium (Lolium [4]): 95%
degree of damage to the plants, Bromus (Bromus [5]): 95%
degree of damage to the plants, Amaranthus (Amaranthus): 100%
degree of damage to the plants, Stellaria (Stellaria): 100%
compatibility with crop plants compared with the known compounds (A) and (B) [6]: substantially better compatibility with crop plants
tolerance by crop plants [7]: tolerated well by crop plants
degree of damage to the plants, Alopecurus (Alopecurus [8]): 90%
degree of damage to the plants, Echinochloa (Echinochloa): 90%
degree of damage to the plants, Chenopodium (Chenopodium [9]): 95%
degree of damage to the plants, rape (rape): 0%
degree of damage to the plants, Lolium (Lolium [10]): 90%
activity against weeds compared with the known compounds (A) and (B) (weeds [11]): considerably stronger activity against weeds

CCOC(=O)c1csc(C)c1S(=O)(=O)NC(=O)n1nc(OC)n(C)c1=O (as salt: sodium) [Example 1, ethyl 4-[[[(3-methoxy-4-methyl-5-oxo-1H-1,2,4-triazol-1-yl)carbonyl]amino]sulfonyl]-5-methyl-3-thiophenecarboxylate]
melting point: 220 °C

CCOC(=O)c1csc(C)c1S(=O)(=O)NC(=O)n1nc(OC)n(C)c1=O [Example 1, ethyl 4-[[[(3-methoxy-4-methyl-5-oxo-1H-1,2,4-triazol-1-yl)carbonyl]amino]sulfonyl]-5-methyl-3-thiophenecarboxylate]
activity against weeds compared with the known compounds (A) to (G) (weeds [1]): considerably stronger activity against weeds
pest or weed control at 15 g/ha (Xanthium [12]): 95%
degree of damage to the plants, Solanum (Solanum): 100%
plant injury at 15 g/ha (maize [13]): 0%
pest or weed control at 15 g/ha (Lolium [4]): 90%
plant injury at 15 g/ha (wheat [14]): 0%
pest or weed control at 15 g/ha (Matricaria): 100%
degree of damage to the plants, Bromus (Bromus [5]): 95%
degree of damage to the plants, Amaranthus (Amaranthus): 100%
pest or weed control at 15 g/ha (Stellaria): 100%
compatibility with crop plants compared with the known compounds (A) and (B) [6]: substantially better compatibility with crop plants
tolerance by crop plants [7]: tolerated well by crop plants
degree of damage to the plants, Datura (Datura): 95%
degree of damage to the plants, Viola (Viola): 95%
degree of damage to the plants, Xanthium (Xanthium [15]): 95%
degree of damage to the plants, Echinochloa (Echinochloa): 90%
degree of damage to the plants, maize (maize [16]): 0%
degree of damage to the plants, Polygonum (Polygonum [17]): 95%
degree of damage to the plants, Lolium (Lolium [10]): 90%
degree of damage to the plants, wheat (wheat [18]): 0%
activity against weeds compared with the known compounds (A) and (B) (weeds [11]): considerably stronger activity against weeds
melting point: 176 °C

CCCOc1nn(C(=O)NS(=O)(=O)c2c(C(=O)OC)csc2C)c(=O)n1C1CC1 [(B), methyl 4-[[[(4-cyclopropyl-4,5-dihydro-5-oxo-3-n-propoxy-1H-1,2,4-triazol-1-yl)-carbonyl]amino]sulfonyl]-5-methyl-3-thiophenecarboxylate, reference compound]
degree of damage to the plants, Setaria (Setaria [2]): 40%
degree of damage to the plants, Galium (Galium): 20%
degree of damage to the plants, Alopecurus (Alopecurus [19]): 20%
pest or weed control at 15 g/ha (Xanthium [12]): 0%
degree of damage to the plants, Avena fatua (Avena fatua [3]): 10%
degree of damage to the plants, Digitaria (Digitaria [20]): 0%
degree of damage to the plants, Solanum (Solanum): 80%
plant injury at 15 g/ha (maize [13]): 0%
degree of damage to the plants, Chenopodium (Chenopodium [21]): 40%
degree of damage to the plants, Polygonum (Polygonum [22]): 50%
pest or weed control at 15 g/ha (Lolium [4]): 20%
plant injury at 15 g/ha (wheat [14]): 0%
degree of damage to the plants, soybeans (soybeans): 0%
pest or weed control at 15 g/ha (Matricaria): 40%
degree of damage to the plants, Bromus (Bromus [5]): 40%
degree of damage to the plants, Amaranthus (Amaranthus): 80%
pest or weed control at 15 g/ha (Stellaria): 60%
degree of damage to the plants, Datura (Datura): 80%
degree of damage to the plants, Setaria (Setaria [23]): 60%
degree of damage to the plants, Alopecurus (Alopecurus [8]): 0%
degree of damage to the plants, Xanthium (Xanthium [15]): 50%
degree of damage to the plants, Avena fatua (Avena fatua [24]): 50%
degree of damage to the plants, Digitaria (Digitaria [25]): 20%
degree of damage to the plants, maize (maize [16]): 90%
degree of damage to the plants, Polygonum (Polygonum [17]): 70%
degree of damage to the plants, Lolium (Lolium [10]): 60%
degree of damage to the plants, wheat (wheat [18]): 30%
degree of damage to the plants, Bromus (Bromus [26]): 50%
